Measured values from ChEMBL document CHEMBL1201862, “PubChem BioAssay data set” (2004).
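1) Cells in 96-well plates. 2) Compound, 48 h, 5 concentrations. 3) Linear interpolation between surrounding doses. 4) Unreached endpoint = highest concentration. At the GI50, growth is halved.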 The source made the active and inactive calls. Cut-off read from the data, not from the text of the source: active = GI50 up to about 1.1 µM and inactive = higher.

Tests used:
Test in all cases: NCI tumour cell line growth inhibition, 48 h
A498 = system: A498
UACC-257 = system: UACC-257
HCC 2998 = system: HCC 2998
A549 = system: A549
MOLT-4 = system: MOLT-4
HL-60 = system: HL-60
NCI-H522 = system: NCI-H522
K562 = system: K562
COLO 205 = system: COLO 205
NCI/ADR-RES = system: NCI/ADR-RES
DU-145 = system: DU-145
EKVX = system: EKVX
UACC-62 = system: UACC-62
HOP-62 = system: HOP-62
RPMI-8226 = system: RPMI-8226
OVCAR-3 = system: OVCAR-3
Hs-578T = system: Hs-578T
ACHN = system: ACHN
SK-MEL-5 = system: SK-MEL-5
SK-MEL-2 = system: SK-MEL-2
U-251 = system: U-251
RXF 393 = system: RXF 393
SK-MEL-28 = system: SK-MEL-28
T47D = system: T47D
CCRF-CEM = system: CCRF-CEM
KM12 = system: KM12
SW-620 = system: SW-620
NCI-H460 = system: NCI-H460
IGROV-1 = system: IGROV-1
PC-3 = system: PC-3
Malme-3M = system: Malme-3M
SN12C = system: SN12C
MDA-N = system: MDA-N
UO-31 = system: UO-31
BT-549 = system: BT-549
OVCAR-8 = system: OVCAR-8
786-0 = system: 786-0
SK-OV-3 = system: SK-OV-3
LOX IMVI = system: LOX IMVI
TK-10 = system: TK-10
MDA-MB-435 = system: MDA-MB-435
MDA-MB-231 = system: MDA-MB-231
SNB-19 = system: SNB-19
SF-268 = system: SF-268
NCI-H23 = system: NCI-H23
OVCAR-5 = system: OVCAR-5
SF-539 = system: SF-539
M14 = system: M14
SNB-75 = system: SNB-75
HT-29 = system: HT-29
MCF7 = system: MCF7
HCT-15 = system: HCT-15
OVCAR-4 = system: OVCAR-4
HCT-116 = system: HCT-116
HOP-92 = system: HOP-92
SR = system: SR
SF-295 = system: SF-295
CAKI-1 = system: CAKI-1
NCI-H226 = system: NCI-H226

SMILES: C=C1CC(O)C2C(=C)C(=O)OC2C2C(C)C(=O)CC12 (stereo not given)
- GI50 (A498): 29.4 µM (inactive)
- GI50 (UACC-257): 12.6 µM (inactive)
- GI50 (HCC 2998): 20 µM (inactive)
- GI50 (A549): 20.3 µM (inactive)
- GI50 (MOLT-4): 7.03 µM (inactive)
- GI50 (HL-60): 3.01 µM (inactive)
- GI50 (NCI-H522): 5.16 µM (inactive)
- GI50 (K562): 5.98 µM (inactive)
- GI50 (COLO 205): 7.33 µM (inactive)
- GI50 (NCI/ADR-RES): 18.4 µM (inactive)
- GI50 (DU-145): 15.3 µM (inactive)
- GI50 (EKVX): 15.4 µM (inactive)
- GI50 (UACC-62): 15.3 µM (inactive)
- GI50 (HOP-62): 19.8 µM (inactive)
- GI50 (RPMI-8226): 14 µM (inactive)
- GI50 (OVCAR-3): 11.6 µM (inactive)
- GI50 (Hs-578T): 19.1 µM (inactive)
- GI50 (ACHN): 5.32 µM (inactive)
- GI50 (SK-MEL-5): 20.7 µM (inactive)
- GI50 (SK-MEL-2): 18.9 µM (inactive)
- GI50 (U-251): 23 µM (inactive)
- GI50 (RXF 393): 4.73 µM (inactive)
- GI50 (SK-MEL-28): 14.3 µM (inactive)
- GI50 (T47D): 16.9 µM (inactive)
- GI50 (CCRF-CEM): 4.08 µM (inactive)
- GI50 (KM12): 24.7 µM (inactive)
- GI50 (SW-620): 5.12 µM (inactive)
- GI50 (NCI-H460): 24.5 µM (inactive)
- GI50 (IGROV-1): 18.4 µM (inactive)
- GI50 (PC-3): 36.6 µM (inactive)
- GI50 (Malme-3M): 12 µM (inactive)
- GI50 (SN12C): 15.5 µM (inactive)
- GI50 (MDA-N): 6.87 µM (inactive)
- GI50 (UO-31): 14.7 µM (inactive)
- GI50 (BT-549): 7.87 µM (inactive)
- GI50 (OVCAR-8): 21.3 µM (inactive)
- GI50 (786-0): > 10 µM (inactive)
- GI50 (SK-OV-3): 33 µM (inactive)
- GI50 (LOX IMVI): 20 µM (inactive)
- GI50 (TK-10): 4.82 µM (inactive)
- GI50 (MDA-MB-435): 11.3 µM (inactive)
- GI50 (MDA-MB-231): 20.4 µM (inactive)
- GI50 (SNB-19): 18.8 µM (inactive)
- GI50 (SF-268): 22.2 µM (inactive)
- GI50 (NCI-H23): 16 µM (inactive)
- GI50 (OVCAR-5): 16.1 µM (inactive)
- GI50 (SF-539): 19.7 µM (inactive)
- GI50 (M14): 11.8 µM (inactive)
- GI50 (SNB-75): 15.1 µM (inactive)
- GI50 (HT-29): 18.7 µM (inactive)
- GI50 (MCF7): 9.4 µM (inactive)
- GI50 (HCT-15): 4.82 µM
- GI50 (OVCAR-4): 17.6 µM (inactive)
- GI50 (HCT-116): 10 µM (inactive)
- GI50 (HOP-92): 13 µM (inactive)
- GI50 (SR): 9.14 µM (inactive)
- GI50 (SF-295): 27.6 µM (inactive)
- GI50 (CAKI-1): 4.57 µM (inactive)

SMILES: CC(=O)O[C@H]1C[C@]2(C)C(CCC3O[C@@]32C)[C@@]2(CC(c3ccoc3)OC2O)[C@@H]1C (stereo not given in full)
- GI50 (A498): > 100 µM (inactive)
- GI50 (UACC-257): 63.4 µM (inactive)
- GI50 (HCC 2998): > 100 µM (inactive)
- GI50 (A549): > 100 µM (inactive)
- GI50 (MOLT-4): 29.6 µM (inactive)
- GI50 (HL-60): 21.6 µM (inactive)
- GI50 (NCI-H522): 44.3 µM (inactive)
- GI50 (K562): 35.8 µM (inactive)
- GI50 (COLO 205): > 100 µM (inactive)
- GI50 (NCI/ADR-RES): > 100 µM (inactive)
- GI50 (DU-145): > 100 µM (inactive)
- GI50 (EKVX): > 100 µM (inactive)
- GI50 (UACC-62): 37.6 µM (inactive)
- GI50 (RPMI-8226): 28.9 µM (inactive)
- GI50 (OVCAR-3): 60.7 µM (inactive)
- GI50 (Hs-578T): > 100 µM (inactive)
- GI50 (ACHN): > 100 µM (inactive)
- GI50 (SK-MEL-5): 50 µM (inactive)
- GI50 (SK-MEL-2): > 100 µM (inactive)
- GI50 (U-251): > 100 µM (inactive)
- GI50 (RXF 393): > 100 µM (inactive)
- GI50 (SK-MEL-28): > 100 µM (inactive)
- GI50 (T47D): 39.3 µM (inactive)
- GI50 (CCRF-CEM): 30.7 µM (inactive)
- GI50 (KM12): 78.3 µM (inactive)
- GI50 (SW-620): > 100 µM (inactive)
- GI50 (NCI-H460): 60.8 µM (inactive)
- GI50 (IGROV-1): > 100 µM (inactive)
- GI50 (PC-3): 50.1 µM (inactive)
- GI50 (SN12C): > 100 µM (inactive)
- GI50 (MDA-N): > 100 µM (inactive)
- GI50 (UO-31): 59.3 µM (inactive)
- GI50 (BT-549): 40 µM (inactive)
- GI50 (OVCAR-8): > 100 µM (inactive)
- GI50 (786-0): > 100 µM (inactive)
- GI50 (SK-OV-3): > 100 µM (inactive)
- GI50 (LOX IMVI): 78.3 µM (inactive)
- GI50 (TK-10): > 100 µM (inactive)
- GI50 (MDA-MB-435): 86.7 µM (inactive)
- GI50 (MDA-MB-231): > 100 µM (inactive)
- GI50 (SNB-19): > 100 µM (inactive)
- GI50 (SF-268): > 100 µM (inactive)
- GI50 (NCI-H23): 72.3 µM (inactive)
- GI50 (OVCAR-5): > 100 µM (inactive)
- GI50 (SF-539): > 100 µM (inactive)
- GI50 (M14): > 100 µM (inactive)
- GI50 (NCI-H226): > 100 µM (inactive)
- GI50 (SNB-75): > 100 µM (inactive)
- GI50 (HT-29): 75.9 µM (inactive)
- GI50 (MCF7): 44.3 µM (inactive)
- GI50 (HCT-15): 37.8 µM
- GI50 (OVCAR-4): 41 µM (inactive)
- GI50 (HCT-116): 60.8 µM (inactive)
- GI50 (HOP-92): > 100 µM (inactive)
- GI50 (SR): 39.2 µM (inactive)
- GI50 (SF-295): > 100 µM (inactive)
- GI50 (CAKI-1): > 100 µM (inactive)
